Active and inactive are the calls of the source.
How the values were obtained:
Protein Wnt-3a = Protein Wnt-3a (Mus musculus, UniProt P27467); assay: SAR analysis of small molecule antagonists of Gli-SUFU in a Wnt3a luminescent reporter assay.; format: functional
Genome polyprotein = Genome polyprotein (dengue virus type 2, UniProt P29990); assay: Dengue-2 NS5 methyltransferase inhibitors, primary screen, biochemical, confirmation dose response (AID 588689); format: functional
[1] = biological target: Mitochondrial peptide methionine sulfoxide reductase (Bos taurus, UniProt P54149); format: functional;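 note: absorbance read-out, biochemical high-throughput dose-response screen for MsrA inhibitors, confirmatory; recombinant bovine MsrA coupled to E. coli TrxB with NADPH and selenocystamine; potency is for inhibitors of MsrA activity on DMSO substrate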
[2] = biological target: T1, Rac GTPase-activating protein 1 (Homo sapiens, UniProt Q9H0H5); assay: MgcRacGAP GTPase-activating activity inhibitors, confirmation, biochemical, ADP Hunter fluorescence, primary and confirmatory (AID 624330); format: functional
T1 sequence (Q9H0H5 whole entry): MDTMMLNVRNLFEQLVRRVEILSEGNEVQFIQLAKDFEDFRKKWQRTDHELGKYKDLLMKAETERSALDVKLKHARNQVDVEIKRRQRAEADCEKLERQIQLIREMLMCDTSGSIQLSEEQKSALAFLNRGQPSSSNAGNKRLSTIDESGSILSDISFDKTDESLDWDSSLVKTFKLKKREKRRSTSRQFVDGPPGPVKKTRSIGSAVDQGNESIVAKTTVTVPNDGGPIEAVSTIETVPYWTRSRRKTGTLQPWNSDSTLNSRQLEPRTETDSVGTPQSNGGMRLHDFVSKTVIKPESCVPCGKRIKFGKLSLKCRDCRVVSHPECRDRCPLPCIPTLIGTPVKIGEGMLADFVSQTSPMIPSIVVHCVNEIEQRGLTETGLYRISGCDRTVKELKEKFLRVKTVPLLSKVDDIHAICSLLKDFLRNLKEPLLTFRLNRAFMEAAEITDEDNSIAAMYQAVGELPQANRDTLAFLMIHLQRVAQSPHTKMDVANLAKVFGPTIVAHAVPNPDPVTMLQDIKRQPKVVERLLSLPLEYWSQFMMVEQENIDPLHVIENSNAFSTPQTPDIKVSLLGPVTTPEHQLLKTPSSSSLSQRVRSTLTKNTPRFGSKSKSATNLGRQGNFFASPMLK

Fatty acid synthase [3] = biological target: T2, Fatty acid synthase (Homo sapiens, UniProt P49327); assay: FAS thioesterase domain inhibitors, dose response, biochemical, kinetic fluorescence intensity (AID 624326); format: functional;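 note: rate of fluorescence rise from hydrolysis of a fluorogenic O-methyl fluorescein ester substrate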
Fatty acid synthase [4] = biological target: T2, Fatty acid synthase; assay: FAS thioesterase domain inhibitors, dose response, biochemical, endpoint fluorescence intensity, uHTS hits (AID 624327); format: functional;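 note: fluorescence from hydrolysis of an O-methyl fluorescein acyl ester substrate by the enzyme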
[5] = biological target: Scavenger receptor class B member 1 (Mus musculus, UniProt Q61009); assay: inhibitors of SR-BI-mediated HDL uptake, dose response, cell-based, ldlA[mSR-BI] CHO, DiI fluorescence, dry powder, set 10 (AID 624029); format: functional
[6] = T. cruzi intracellular amastigote growth inhibition, dose response, imaging, CA-I/72 strain, bovine embryo skeletal muscle, dry powder (AID 651885); format: functional, cell-based
[7] = T. cruzi growth inhibition in host cells, dose response, cell-based, plate reader, dry powder, set 2 (AID 652275); format: functional
[8] = biological target: T3, Low molecular weight phosphotyrosine protein phosphatase (Homo sapiens, UniProt P24666); format: functional; details: read-out: IC50_Mean
T3 sequence (P24666 whole entry): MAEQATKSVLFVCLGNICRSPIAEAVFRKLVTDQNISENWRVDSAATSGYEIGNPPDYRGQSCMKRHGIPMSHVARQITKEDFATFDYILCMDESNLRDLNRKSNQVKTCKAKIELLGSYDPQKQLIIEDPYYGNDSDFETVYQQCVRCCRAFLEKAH

[9] = biological target: T3, Low molecular weight phosphotyrosine protein phosphatase; format: functional; details: read-out: IC50_Mean; remark: listed apart in the source
[10] = HEK293T cell cytotoxicity, dose response, cytotoxicity control for HIV Vif inhibitor project, cherry-picks (AID 652208); format: functional, cell-based
Cytochrome P450 3A4 = Cytochrome P450 3A4 (Homo sapiens, UniProt P08684);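 note: CYP3A4 tested as one member of a cytochrome P450 panel screen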
Cytochrome P450 2C19 = Cytochrome P450 2C19 (Homo sapiens, UniProt P33261); assay: Cytochrome panel assay with activity outcomes. Panel member name: p450-cyp2c19 Compounds with AC50 equal or less than 10 uM are considered active; format: functional; details: read-out: AC50
[11] = StAR promoter reporter inhibition counter-screen, dose response, counter-screen for LRH-1 inverse agonist project, cell-based, luminescence, luciferase reporter (AID 651969); format: functional
[12] = biological target: Nuclear receptor subfamily 5 group A member 2 (Homo sapiens, UniProt O00482); format: functional, cell-based;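 note: HEK293T cells transfected with LRH-1 and a StAR promoter luciferase reporter; potency for inhibitors that lower LRH-1 driven reporter light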
Steroidogenic factor 1 = Steroidogenic factor 1 (Homo sapiens, UniProt Q13285); assay: Counterscreen for inverse agonists of the liver receptor homolog-1 (LRH-1; NR5A2): Luminescence-based cell-based high throughput dose response assay to identify inverse agonists of the Steroidogenic Factor 1 Nuclear Receptor (SF1; NR5A1).; format: functional
Albumin = Albumin (Bos taurus, UniProt P02769); assay: Counterscreen for inhibitors of T-cell receptor (TCR)-CD3 interaction: Fluorescence-based biochemical high throughput dose response assay to identify inhibitors of T-cell receptor (TCR)-CD3 interaction using a TAMRA-labeled BSA probe.; format: functional
[13] = HepG2 cell cytotoxicity, dose response, cytotoxicity control, plate reader, cherry-pick, antagonist series (AID 743416); format: functional, cell-based
[14] = MC4R antagonists, dose response, counter-screen for LGR2 antagonist project, cell-based, plate reader, cherry pick (AID 743444); format: functional;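 note: transfected HEK 293 cells stimulated with alpha-MSH peptide; potency of inhibitors of the alpha-MSH evoked signal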
[15] = LGR2 antagonists, dose response, cell-based, HEK293, CRE-luciferase reporter, cherry pick, set 2 (AID 743343); format: functional;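 note: transfected cells were stimulated with diluted bursicon conditioned medium after compound addition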
[16] = HEK293 cell cytotoxicity, dose response, cytotoxicity control, plate reader, cherry-picked samples (AID 743446); format: functional, cell-based
[17] = biological target: Hepatocyte nuclear factor 4-alpha (Homo sapiens, UniProt P41235); format: functional, cell-based;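 note: biochemical luminescence-based dose-response counterscreen measuring inhibition of HNF4 dimerization, run alongside a screen for blockers of ABHD5–perilipin-5 interaction; split luciferase complementation of HNF4 fusion proteins in cell lysate measuring dimerization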
[18] = Counterscreen for activators of the function of SWI/SNF related, matrix associated, actin dependent regulator of chromatin, subfamily a, member 2 (SMARCA2, BRM): Luminescence-based cell-based high throughput dose response assay to identify non-selective compounds using the VP16 reporter assay.; format: functional
[19] = biological target: T4, DNA repair protein RAD52 homolog (Homo sapiens, UniProt P43351); format: functional, biochemical
T4 sequence (P43351 whole entry): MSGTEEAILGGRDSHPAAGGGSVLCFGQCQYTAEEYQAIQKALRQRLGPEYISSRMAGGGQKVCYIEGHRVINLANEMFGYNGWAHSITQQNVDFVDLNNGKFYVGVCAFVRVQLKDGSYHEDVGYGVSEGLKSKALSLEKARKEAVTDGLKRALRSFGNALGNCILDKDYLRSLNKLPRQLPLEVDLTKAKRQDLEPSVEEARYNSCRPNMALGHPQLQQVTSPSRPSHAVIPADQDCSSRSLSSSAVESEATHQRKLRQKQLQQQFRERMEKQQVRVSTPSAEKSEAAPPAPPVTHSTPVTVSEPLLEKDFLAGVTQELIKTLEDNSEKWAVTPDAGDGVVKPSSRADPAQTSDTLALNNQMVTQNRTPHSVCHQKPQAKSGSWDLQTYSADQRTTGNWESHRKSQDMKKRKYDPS

[20] = biological target: SWI/SNF-related matrix-associated actin-dependent regulator of chromatin subfamily A member 2 (Homo sapiens, UniProt P51531); assay: Luminescence-based cell-based high throughput dose response assay to identify activators of the function of SWI/SNF related, matrix associated, actin dependent regulator of chromatin, subfamily a, member 2 (SMARCA2, BRM).; format: functional
[21] = biological target: DNA repair and recombination protein RAD54-like (Homo sapiens, UniProt Q92698); assay: inhibitors of human RAD54 branch migration, confirmation, biochemical, fluorescence, cherry-picked samples, dose series (AID 651657); format: functional
[22] = biological target: T5, Corticotropin-releasing factor receptor 2/Corticotropin-releasing factor-binding protein (Homo sapiens, UniProt P24387+Q13324); assay: activators of CRF receptor 2 with binding protein – uHTS hits, confirmation (AID 602473); format: functional; details: read-out: EC50_Mean
T5 sequence (Q13324 whole entry): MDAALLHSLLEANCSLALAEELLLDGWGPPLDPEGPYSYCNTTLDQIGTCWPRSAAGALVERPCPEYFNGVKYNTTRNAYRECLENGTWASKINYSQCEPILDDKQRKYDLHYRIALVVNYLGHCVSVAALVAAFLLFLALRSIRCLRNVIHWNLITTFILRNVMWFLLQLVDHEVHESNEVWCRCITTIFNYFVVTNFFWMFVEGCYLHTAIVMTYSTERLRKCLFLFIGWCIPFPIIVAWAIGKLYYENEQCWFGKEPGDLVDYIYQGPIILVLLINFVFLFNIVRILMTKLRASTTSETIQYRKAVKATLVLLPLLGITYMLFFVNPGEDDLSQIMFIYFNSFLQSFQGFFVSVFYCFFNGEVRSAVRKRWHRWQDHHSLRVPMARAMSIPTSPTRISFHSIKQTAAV
T5 sequence (P24387 whole entry): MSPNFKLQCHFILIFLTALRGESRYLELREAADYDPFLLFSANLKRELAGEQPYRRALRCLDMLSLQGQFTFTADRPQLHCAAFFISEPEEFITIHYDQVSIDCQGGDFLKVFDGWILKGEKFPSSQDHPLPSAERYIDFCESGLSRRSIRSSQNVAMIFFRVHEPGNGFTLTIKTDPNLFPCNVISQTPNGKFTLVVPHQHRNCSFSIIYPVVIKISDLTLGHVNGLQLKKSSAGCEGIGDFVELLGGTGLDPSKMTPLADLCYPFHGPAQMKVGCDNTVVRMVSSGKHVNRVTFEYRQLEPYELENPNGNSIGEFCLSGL

[23] = biological target: T6, Sentrin-specific protease 1 (Homo sapiens, UniProt Q9P0U3); assay: potency of human SENP1 inhibitors, dose response, biochemical, kinetic FRET (AID 651697); format: functional; details: read-out: IC50_Mean
[24] = biological target: T5, Corticotropin-releasing factor receptor 2/Corticotropin-releasing factor-binding protein; assay: Dose Response confirmation of uHTS hits for small molecule antagonists of the CRF-binding protein and CRF-R2 receptor complex.; format: functional; details: read-out: IC50_Mean
[25] = biological target: T6, Sentrin-specific protease 1; assay: Dose response confirmation of small molecule inhibitors of the catalytic domain of the SUMO protease, SENP1 in a FRET assay.; format: functional; details: read-out: IC50_Mean

T6 sequence (Q9P0U3 whole entry): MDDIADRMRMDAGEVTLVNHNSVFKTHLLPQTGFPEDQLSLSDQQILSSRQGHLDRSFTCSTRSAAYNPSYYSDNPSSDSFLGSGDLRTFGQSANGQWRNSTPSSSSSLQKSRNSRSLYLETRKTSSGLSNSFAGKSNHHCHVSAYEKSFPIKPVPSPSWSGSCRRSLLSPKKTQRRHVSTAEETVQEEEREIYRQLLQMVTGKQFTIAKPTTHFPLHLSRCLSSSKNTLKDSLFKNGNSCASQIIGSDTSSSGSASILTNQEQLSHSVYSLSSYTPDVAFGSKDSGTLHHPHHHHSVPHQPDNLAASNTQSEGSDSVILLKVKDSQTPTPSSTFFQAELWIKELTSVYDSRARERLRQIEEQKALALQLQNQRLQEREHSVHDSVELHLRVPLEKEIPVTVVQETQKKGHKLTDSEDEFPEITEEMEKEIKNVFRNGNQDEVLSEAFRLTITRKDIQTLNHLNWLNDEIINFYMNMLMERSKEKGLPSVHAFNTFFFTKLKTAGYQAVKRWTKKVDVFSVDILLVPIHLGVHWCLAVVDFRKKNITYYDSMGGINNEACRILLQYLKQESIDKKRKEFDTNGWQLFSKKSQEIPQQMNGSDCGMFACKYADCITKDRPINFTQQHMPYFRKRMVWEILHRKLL
T2 sequence (P49327 whole entry, the tested form may be a part): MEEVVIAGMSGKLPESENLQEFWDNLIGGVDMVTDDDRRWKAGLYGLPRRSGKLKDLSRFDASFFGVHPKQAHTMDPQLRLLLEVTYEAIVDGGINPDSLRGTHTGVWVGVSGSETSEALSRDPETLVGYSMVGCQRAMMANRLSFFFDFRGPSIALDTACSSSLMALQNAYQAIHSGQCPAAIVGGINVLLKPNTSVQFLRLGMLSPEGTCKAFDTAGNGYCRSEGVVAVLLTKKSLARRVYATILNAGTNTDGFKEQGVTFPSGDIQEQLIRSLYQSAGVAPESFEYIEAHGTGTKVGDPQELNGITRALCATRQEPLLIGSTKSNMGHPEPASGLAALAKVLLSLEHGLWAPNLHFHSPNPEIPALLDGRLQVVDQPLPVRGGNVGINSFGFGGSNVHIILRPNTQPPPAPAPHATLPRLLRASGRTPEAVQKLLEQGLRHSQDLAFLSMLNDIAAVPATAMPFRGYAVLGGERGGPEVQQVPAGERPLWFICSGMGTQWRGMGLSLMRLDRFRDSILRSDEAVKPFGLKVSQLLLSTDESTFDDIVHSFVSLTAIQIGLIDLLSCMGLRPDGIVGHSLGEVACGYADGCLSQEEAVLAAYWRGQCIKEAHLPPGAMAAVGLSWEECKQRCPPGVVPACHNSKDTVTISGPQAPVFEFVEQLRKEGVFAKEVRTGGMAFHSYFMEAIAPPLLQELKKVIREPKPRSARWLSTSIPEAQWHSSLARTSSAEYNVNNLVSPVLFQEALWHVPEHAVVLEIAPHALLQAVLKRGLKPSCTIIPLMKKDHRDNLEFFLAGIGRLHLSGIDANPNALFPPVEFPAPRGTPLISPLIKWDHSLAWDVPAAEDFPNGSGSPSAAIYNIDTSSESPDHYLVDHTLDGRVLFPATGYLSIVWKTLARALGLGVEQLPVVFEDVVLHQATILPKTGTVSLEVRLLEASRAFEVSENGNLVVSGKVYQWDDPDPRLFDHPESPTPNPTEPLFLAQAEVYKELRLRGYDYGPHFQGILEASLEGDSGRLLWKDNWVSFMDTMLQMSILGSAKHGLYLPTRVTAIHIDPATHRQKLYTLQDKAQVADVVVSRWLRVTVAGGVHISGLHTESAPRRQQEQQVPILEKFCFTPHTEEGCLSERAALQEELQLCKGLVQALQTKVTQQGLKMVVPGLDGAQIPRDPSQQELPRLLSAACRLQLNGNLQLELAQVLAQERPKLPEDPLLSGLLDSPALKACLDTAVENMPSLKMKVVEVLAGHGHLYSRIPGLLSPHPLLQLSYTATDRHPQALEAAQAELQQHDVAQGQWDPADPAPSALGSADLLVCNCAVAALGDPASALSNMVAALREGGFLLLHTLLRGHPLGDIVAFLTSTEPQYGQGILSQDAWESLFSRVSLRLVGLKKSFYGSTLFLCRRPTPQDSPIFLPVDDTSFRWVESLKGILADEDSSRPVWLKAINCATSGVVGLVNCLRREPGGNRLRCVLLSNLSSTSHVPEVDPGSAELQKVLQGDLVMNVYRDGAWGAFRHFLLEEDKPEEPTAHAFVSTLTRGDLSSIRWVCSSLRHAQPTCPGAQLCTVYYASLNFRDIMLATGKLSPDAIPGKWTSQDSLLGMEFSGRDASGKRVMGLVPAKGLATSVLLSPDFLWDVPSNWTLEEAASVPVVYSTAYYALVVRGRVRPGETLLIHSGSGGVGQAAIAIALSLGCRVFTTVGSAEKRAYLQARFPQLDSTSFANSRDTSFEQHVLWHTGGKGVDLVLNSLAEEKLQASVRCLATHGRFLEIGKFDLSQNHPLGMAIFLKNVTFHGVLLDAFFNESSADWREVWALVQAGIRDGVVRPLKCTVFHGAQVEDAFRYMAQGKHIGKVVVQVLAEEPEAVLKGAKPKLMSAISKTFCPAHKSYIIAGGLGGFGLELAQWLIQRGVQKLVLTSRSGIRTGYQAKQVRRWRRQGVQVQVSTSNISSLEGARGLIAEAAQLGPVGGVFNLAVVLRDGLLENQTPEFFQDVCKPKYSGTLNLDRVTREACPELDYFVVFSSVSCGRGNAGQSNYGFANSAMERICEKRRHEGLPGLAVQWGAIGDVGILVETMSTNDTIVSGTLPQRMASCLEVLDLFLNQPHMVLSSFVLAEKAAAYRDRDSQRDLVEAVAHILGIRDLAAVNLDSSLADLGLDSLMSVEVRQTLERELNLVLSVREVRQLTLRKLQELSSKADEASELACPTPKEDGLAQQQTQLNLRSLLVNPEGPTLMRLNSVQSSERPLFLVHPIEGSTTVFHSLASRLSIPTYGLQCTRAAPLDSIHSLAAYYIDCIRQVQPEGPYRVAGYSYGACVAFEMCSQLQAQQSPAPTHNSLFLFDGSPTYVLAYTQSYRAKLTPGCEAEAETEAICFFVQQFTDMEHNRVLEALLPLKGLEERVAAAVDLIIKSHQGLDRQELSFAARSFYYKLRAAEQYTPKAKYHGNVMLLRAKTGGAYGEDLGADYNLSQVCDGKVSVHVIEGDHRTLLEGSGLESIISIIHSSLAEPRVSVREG
Hepatocyte nuclear factor 4-alpha, sequence (P41235 whole entry, the tested form may be a part): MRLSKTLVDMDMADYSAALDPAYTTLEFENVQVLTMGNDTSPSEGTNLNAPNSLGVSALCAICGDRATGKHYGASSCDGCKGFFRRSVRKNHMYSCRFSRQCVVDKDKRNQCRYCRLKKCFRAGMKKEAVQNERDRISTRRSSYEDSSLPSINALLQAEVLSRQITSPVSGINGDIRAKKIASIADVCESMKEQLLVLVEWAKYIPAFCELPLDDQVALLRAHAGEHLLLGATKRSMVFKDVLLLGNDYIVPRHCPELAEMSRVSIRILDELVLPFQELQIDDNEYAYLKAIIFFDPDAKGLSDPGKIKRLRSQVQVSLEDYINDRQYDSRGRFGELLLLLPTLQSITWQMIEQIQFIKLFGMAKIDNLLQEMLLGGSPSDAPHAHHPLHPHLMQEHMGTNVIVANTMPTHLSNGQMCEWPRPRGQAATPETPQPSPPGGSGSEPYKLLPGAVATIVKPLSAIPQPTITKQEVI
DNA repair and recombination protein RAD54-like, sequence (Q92698 whole entry): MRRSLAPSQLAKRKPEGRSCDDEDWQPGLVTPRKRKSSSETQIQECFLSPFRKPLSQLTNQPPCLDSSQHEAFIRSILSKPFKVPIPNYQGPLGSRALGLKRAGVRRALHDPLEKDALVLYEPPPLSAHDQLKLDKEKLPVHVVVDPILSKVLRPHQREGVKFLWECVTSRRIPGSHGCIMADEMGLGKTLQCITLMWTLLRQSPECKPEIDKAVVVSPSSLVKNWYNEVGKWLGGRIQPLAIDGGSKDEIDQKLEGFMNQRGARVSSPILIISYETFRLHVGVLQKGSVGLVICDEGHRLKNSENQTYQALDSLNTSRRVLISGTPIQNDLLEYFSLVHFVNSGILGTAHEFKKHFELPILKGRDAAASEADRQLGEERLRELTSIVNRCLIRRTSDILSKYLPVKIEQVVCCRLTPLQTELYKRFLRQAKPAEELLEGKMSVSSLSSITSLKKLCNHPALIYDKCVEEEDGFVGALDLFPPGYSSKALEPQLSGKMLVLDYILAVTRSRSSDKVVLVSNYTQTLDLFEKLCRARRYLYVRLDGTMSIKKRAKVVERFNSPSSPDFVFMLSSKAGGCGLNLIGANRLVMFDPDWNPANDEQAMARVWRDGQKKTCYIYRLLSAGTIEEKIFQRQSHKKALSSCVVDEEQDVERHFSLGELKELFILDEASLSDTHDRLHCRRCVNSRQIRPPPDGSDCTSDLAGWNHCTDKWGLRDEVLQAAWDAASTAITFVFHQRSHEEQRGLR
Mitochondrial peptide methionine sulfoxide reductase, sequence (P54149 whole entry): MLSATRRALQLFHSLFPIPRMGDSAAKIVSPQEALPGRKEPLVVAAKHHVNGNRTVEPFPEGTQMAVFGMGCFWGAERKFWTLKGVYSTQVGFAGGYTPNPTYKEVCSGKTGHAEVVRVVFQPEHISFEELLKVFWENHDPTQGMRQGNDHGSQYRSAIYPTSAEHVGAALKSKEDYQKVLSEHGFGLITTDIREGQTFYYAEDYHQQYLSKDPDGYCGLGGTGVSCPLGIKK
Protein Wnt-3a, sequence (P27467 whole entry): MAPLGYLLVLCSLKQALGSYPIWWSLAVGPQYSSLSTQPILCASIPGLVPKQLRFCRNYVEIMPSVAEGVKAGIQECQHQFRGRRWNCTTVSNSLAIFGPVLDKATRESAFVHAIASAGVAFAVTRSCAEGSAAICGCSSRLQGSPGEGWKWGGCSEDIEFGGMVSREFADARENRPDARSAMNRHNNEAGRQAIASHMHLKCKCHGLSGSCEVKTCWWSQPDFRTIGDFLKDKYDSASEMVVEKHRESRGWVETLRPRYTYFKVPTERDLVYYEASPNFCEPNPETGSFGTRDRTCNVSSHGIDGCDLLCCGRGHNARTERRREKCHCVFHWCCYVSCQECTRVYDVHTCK

O=C(Nc1cc(N2CCCCC2)ncn1)c1ccc2ccccc2c1
IC50 (Protein Wnt-3a): > 21.8 µM (inactive)

CSc1nc(N)c(N=Nc2ccc([As](=O)(O)O)cc2)c(O)n1
IC50 (Genome polyprotein): 57.3 µM (active) | IC50 [1]: 9.91 µM (active) | IC50 [2]: 39.9 µM (active) | IC50 (Fatty acid synthase [3]): 4.99 µM (active) | IC50 (Fatty acid synthase [4]): 11.4 µM (active)

Cc1ccc(OCc2cc(C(=O)N3CCCC(O)C3)no2)cn1 (stereo unspecified)
AC50 [5]: 61 µM (active)

Cc1cc(C(=O)Nc2cccc3c2O[C@@H](CN(C)Cc2ccc(Oc4ccccc4)cc2)[C@H](C)CN([C@@H](C)CO)C3=O)n(C)n1
IC50 [6]: > 20 µM (inactive) | AC50 [7]: 1.28 µM (active)

CCOCCCNc1nc(-c2ccccc2)nc2ccccc12
IC50 [8]: 21.1 µM (inactive) | IC50 [9]: 12.3 µM (active)

COC(=O)c1ccc(Oc2coc3cc(OCc4cnn(-c5ccccc5)c4)ccc3c2=O)cc1
AC50 [10]: 38.3 µM (active) | AC50 (Cytochrome P450 3A4): inconclusive | AC50 (Cytochrome P450 2C19): 0.708 µM (inconclusive)

CCn1cc(Br)c(C(=O)Nc2ccccc2C(=O)OC)n1
IC50 [11]: 35.9 µM (inactive) | IC50 [12]: 35.9 µM (inactive) | IC50 (Steroidogenic factor 1): 10.5 µM (inactive)

NNC(=O)c1[nH]cnc1C(=O)Nc1ccccn1
IC50 (Albumin): > 94.2 µM (inactive)

O=C(NC1(Cc2ccccc2)CCN(Cc2ccc(-c3ccccc3)cc2)C1=O)c1ccccc1 (stereo unspecified)
AC50 [13]: > 52 µM (inactive) | AC50 [14]: 10.1 µM (active) | AC50 [15]: 5.14 µM (active) | AC50 [16]: > 52 µM (inactive)

CC(c1nc2ccccc2[nH]1)n1c(=O)c(-c2ccco2)nc2ccccc21 (stereo unspecified)
IC50 [17]: 2.93 µM (active)

Cc1ccc(-c2nc(NCCN(C)C)c3ccccc3n2)cc1
EC50 [18]: > 91.2 µM (inactive) | AC50 [19]: 8.93 µM (active) | EC50 [20]: 37.1 µM (inactive) | AC50 [21]: 12.6 µM (active)

C=CCNC(=O)c1cccc2c1C(=O)c1ccc(N3CCOCC3)cc1S2(=O)=O
EC50 [22]: > 53 µM (inactive) | IC50 [23]: 13.9 µM (active) | IC50 [24]: > 47.1 µM (inactive) | IC50 [25]: 13.2 µM (active)
